Measurements: US20260262643A1, “HERBICIDAL BENZOXAZINES” (FMC CORPORATION, priority 2022, published 2026)

Columns and labels:
[1] = tested on: barnyardgrass; experiment: Test C preemergence; type: in vivo, Echinochloa crusgalli; details: for Plant response rating, Barnyardgrass: Preemergence; for Barnyardgrass plant response rating: preemergence
Method in brief: (§1)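 Seeds in loam–sand blend received preemergence directed soil spray of test chemicals in non-phytotoxic solvent with surfactant; postemergence treatment was applied at one- to two-leaf stage (2–10 cm). After 10 days in greenhouse, injury rated visually versus untreated controls, 0 (no effect) to 100 (complete control).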

[2] = tested on: blackgrass; experiment: Test C preemergence; type: in vivo, Alopecurus myosuroides; details: for Plant response rating, Blackgrass: Preemergence; for Blackgrass plant response rating: preemergence
Method in brief: as §1

[3] = tested on: corn; experiment: Test C preemergence; type: in vivo, Zea mays; details: for Plant response rating, Corn: Preemergence; for Corn plant response rating: preemergence
Method in brief: as §1

[4] = tested on: green foxtail; experiment: Test C preemergence; type: in vivo, Setaria viridis; details: for Plant response rating, Foxtail, Green: Preemergence; for Foxtail, Green plant response rating: preemergence
Method in brief: as §1

[5] = tested on: kochia; experiment: Test C preemergence; type: in vivo, Bassia scoparia; details: for Plant response rating, Kochia: Preemergence; for Kochia plant response rating: preemergence
Method in brief: as §1

[6] = tested on: oat, wild; experiment: Test C preemergence; type: in vivo, Avena fatua; details: for Plant response rating, Oat, Wild: Preemergence; for Oat, Wild plant response rating: preemergence
Method in brief: as §1

[7] = tested on: pigweed, palmer; experiment: Test C preemergence; type: in vivo, Amaranthus palmeri; details: for Plant response rating, Pigweed, Palmer: Preemergence; for Pigweed, Palmer plant response rating: preemergence
Method in brief: as §1

[8] = tested on: ragweed; experiment: Test C preemergence; type: in vivo, Ambrosia artemisiifolia; details: for Plant response rating, Ragweed: Preemergence; for Ragweed plant response rating: preemergence
Method in brief: as §1

[9] = tested on: ryegrass, Italian; experiment: Test C preemergence; type: in vivo, Lolium multiflorum; details: for Plant response rating, Ryegrass, Italian: Preemergence; for Ryegrass, Italian plant response rating: preemergence
Method in brief: as §1

[10] = tested on: soybean; experiment: Test C preemergence; type: in vivo, Glycine max; details: for Plant response rating, Soybean: Preemergence; for Soybean plant response rating: preemergence
Method in brief: as §1

[11] = tested on: wheat; experiment: Test C preemergence; type: in vivo, Triticum aestivum; details: for Plant response rating, Wheat: Preemergence; for Wheat plant response rating: preemergence
Method in brief: as §1

[12] = tested on: barnyardgrass; experiment: Test C postemergence; type: in vivo, Echinochloa crusgalli; details: 10 days
Method in brief: as §1

[13] = tested on: blackgrass; experiment: Test C postemergence; type: in vivo, Alopecurus myosuroides; details: 10 days
Method in brief: as §1

[14] = tested on: corn; experiment: Test C postemergence; type: in vivo, Zea mays; details: 10 days
Method in brief: as §1

[15] = tested on: green foxtail; experiment: Test C postemergence; type: in vivo, Setaria viridis; details: 10 days
Method in brief: as §1

[16] = tested on: kochia; experiment: Test C postemergence; type: in vivo, Bassia scoparia; details: 10 days
Method in brief: as §1

[17] = tested on: oat, wild; experiment: Test C postemergence; type: in vivo, Avena fatua; details: 10 days
Method in brief: as §1

[18] = tested on: pigweed, palmer; experiment: Test C postemergence; type: in vivo, Amaranthus palmeri; details: 10 days
Method in brief: as §1

[19] = tested on: ragweed; experiment: Test C postemergence; type: in vivo, Ambrosia artemisiifolia; details: 10 days
Method in brief: as §1

[20] = tested on: ryegrass, Italian; experiment: Test C postemergence; type: in vivo, Lolium multiflorum; details: 10 days
Method in brief: as §1

[21] = tested on: soybean; experiment: Test C postemergence; type: in vivo, Glycine max; details: 10 days
Method in brief: as §1

[22] = tested on: wheat; experiment: Test C postemergence; type: in vivo, Triticum aestivum; details: 10 days
Method in brief: as §1

[23] = tested on: galium; experiment: Test C postemergence; type: in vivo, Galium aparine; details: 10 days
Method in brief: as §1

[24] = tested on: horseweed; experiment: Test C postemergence; type: in vivo, Erigeron canadensis; details: 10 days
Method in brief: as §1

[25] = tested on: barnyardgrass; experiment: Test D flooded paddy test; type: in vivo, Echinochloa crus-galli; details: 250 g ai/ha, applied to paddy water, visual rating after 13 to 14 days, scale 0 to 100 (0 no effect, 100 complete control)
Method in brief: (§2)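 Seedlings reached the 2-leaf stage, then pots were flooded to 3 cm over the soil surface. Compound was applied into the water, depth was maintained, and plants stayed in the greenhouse 13 to 14 days before visual scoring (0–100) relative to controls.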

[26] = tested on: ducksalad; experiment: Test D flooded paddy test; type: in vivo, Heteranthera limosa; details: 250 g ai/ha, applied to paddy water, visual rating after 13 to 14 days, scale 0 to 100 (0 no effect, 100 complete control)
Method in brief: as §2

[27] = tested on: rice; experiment: Test D flooded paddy test; type: in vivo, Oryza sativa; details: 250 g ai/ha, applied to paddy water, visual rating after 13 to 14 days, scale 0 to 100 (0 no effect, 100 complete control)
Method in brief: as §2

[28] = tested on: sedge, umbrella; experiment: Test D flooded paddy test; type: in vivo, Cyperus difformis; details: 250 g ai/ha, applied to paddy water, visual rating after 13 to 14 days, scale 0 to 100 (0 no effect, 100 complete control)
Method in brief: as §2

[29] = 500 g ai/ha, visual rating after 10 days, 0 to 100 scale (0 no effect, 100 complete control)
[30] = Test C, 125 g ai/ha, 0 to 100 scale (0 no effect, 100 complete control)
[31] = 125 g ai/ha, postemergence, 0 to 100 scale, 0 no effect, 100 complete control
[32] = Postemergence, 500 g ai/ha, visual 0 to 100 scale (0 no effect, 100 complete control)
[33] = 500 g ai/ha, 0 to 100 scale (0 no effect, 100 complete control)
[34] = 125 g ai/ha, 0 to 100 scale, 0 no effect, 100 complete control
[35] = 500 g ai/ha, postemergence, 0 to 100 scale (0 no effect, 100 complete control)
[36] = Postemergence, 125 g ai/ha, 0 to 100 scale (0 no effect, 100 complete control)

COc1ccc(-n2cnc(C(C)C)n2)cc1C(=O)N1C[C@H](C)Oc2c1cccc2C(F)(F)F [Compound 171]
Plant response rating, Barnyardgrass [1, 29]: 100
Barnyardgrass plant response rating [1, 30]: 90
Plant response rating, Blackgrass [2, 29]: 70
Blackgrass plant response rating [2, 30]: 70
Plant response rating, Corn [3, 29]: 40
Corn plant response rating [3, 30]: 30
Plant response rating, Foxtail, Green [4, 29]: 100
Foxtail, Green plant response rating [4, 30]: 100
Plant response rating, Kochia [5, 29]: 90
Kochia plant response rating [5, 30]: 90
Plant response rating, Oat, Wild [6, 29]: 80
Oat, Wild plant response rating [6, 30]: 70
Plant response rating, Pigweed, Palmer [7, 29]: 100
Pigweed, Palmer plant response rating [7, 30]: 100
Plant response rating, Ragweed [8, 29]: 90
Ragweed plant response rating [8, 30]: 60
Plant response rating, Ryegrass, Italian [9, 29]: 90
Ryegrass, Italian plant response rating [9, 30]: 50
Plant response rating, Soybean [10, 29]: 100
Soybean plant response rating [10, 30]: 60
Plant response rating, Wheat [11, 29]: 90
Wheat plant response rating [11, 30]: 40
Plant response rating, Barnyardgrass [12, 31]: 30
Plant response rating, Barnyardgrass [12, 32]: 40
Plant response rating, Blackgrass [13, 31]: 30
Plant response rating, Blackgrass [13, 32]: 80
Plant response rating, Corn [14, 31]: 20
Plant response rating, Corn [14, 32]: 20
Plant response rating, Foxtail, Green [15, 31]: 40
Plant response rating, Foxtail, Green [15, 32]: 50
Plant response rating, Kochia [16, 31]: 90
Plant response rating, Kochia [16, 32]: 90
Plant response rating, Oat, Wild [17, 31]: 10
Plant response rating, Oat, Wild [17, 32]: 50
Plant response rating, Pigweed, Palmer [18, 31]: 100
Plant response rating, Pigweed, Palmer [18, 32]: 100
Plant response rating, Ragweed [19, 31]: 60
Plant response rating, Ragweed [19, 32]: 70
Plant response rating, Ryegrass, Italian [20, 31]: 60
Plant response rating, Ryegrass, Italian [20, 32]: 80
Plant response rating, Soybean [21, 31]: 100
Plant response rating, Soybean [21, 32]: 100
Plant response rating, Wheat [22, 31]: 10
Plant response rating, Wheat [22, 32]: 40
Plant response rating, Galium [23, 31]: 100
Plant response rating, Galium [23, 32]: 100
Plant response rating, Horseweed [24, 31]: 20
Plant response rating, Horseweed [24, 32]: 80
Plant response rating, Barnyardgrass (Flood) [25]: 0
Plant response rating, Ducksalad (Flood) [26]: 60
Plant response rating, Rice (Flood) [27]: 0
Plant response rating, Sedge, Umbrella (Flood) [28]: 95

COC[C@H]1CN(C(=O)c2cc(-n3cnc(C(C)(C)C)n3)cc3c2OCCO3)c2cccc(Cl)c2O1 [Compound 382]
Barnyardgrass plant response rating [1, 33]: 100
Plant response rating, Barnyardgrass [1, 34]: 50
Blackgrass plant response rating [2, 33]: 50
Plant response rating, Blackgrass [2, 34]: 10
Corn plant response rating [3, 33]: 70
Plant response rating, Corn [3, 34]: 10
Foxtail, Green plant response rating [4, 33]: 100
Plant response rating, Foxtail, Green [4, 34]: 90
Kochia plant response rating [5, 33]: 100
Plant response rating, Kochia [5, 34]: 80
Oat, Wild plant response rating [6, 33]: 80
Plant response rating, Oat, Wild [6, 34]: 20
Pigweed, Palmer plant response rating [7, 33]: 100
Plant response rating, Pigweed, Palmer [7, 34]: 100
Ragweed plant response rating [8, 33]: 100
Plant response rating, Ragweed [8, 34]: 60
Ryegrass, Italian plant response rating [9, 33]: 100
Plant response rating, Ryegrass, Italian [9, 34]: 80
Soybean plant response rating [10, 33]: 80
Plant response rating, Soybean [10, 34]: 60
Wheat plant response rating [11, 33]: 40
Plant response rating, Wheat [11, 34]: 0
Plant response rating, Barnyardgrass [12, 35]: 50
Plant response rating, Barnyardgrass [12, 36]: 30
Plant response rating, Blackgrass [13, 35]: 40
Plant response rating, Blackgrass [13, 36]: 10
Plant response rating, Corn [14, 35]: 50
Plant response rating, Corn [14, 36]: 20
Plant response rating, Foxtail, Green [15, 35]: 60
Plant response rating, Foxtail, Green [15, 36]: 20
Plant response rating, Kochia [16, 35]: 100
Plant response rating, Kochia [16, 36]: 90
Plant response rating, Oat, Wild [17, 35]: 0
Plant response rating, Oat, Wild [17, 36]: 0
Plant response rating, Pigweed, Palmer [18, 35]: 100
Plant response rating, Pigweed, Palmer [18, 36]: 100
Plant response rating, Ragweed [19, 35]: 90
Plant response rating, Ragweed [19, 36]: 90
Plant response rating, Ryegrass, Italian [20, 35]: 60
Plant response rating, Ryegrass, Italian [20, 36]: 40
Plant response rating, Soybean [21, 35]: 100
Plant response rating, Soybean [21, 36]: 100
Plant response rating, Wheat [22, 35]: 40
Plant response rating, Wheat [22, 36]: 20
Plant response rating, Galium [23, 35]: 100
Plant response rating, Galium [23, 36]: 100
Plant response rating, Horseweed [24, 35]: 50
Plant response rating, Horseweed [24, 36]: 50
Plant response rating, Barnyardgrass (Flood) [25]: 50
Plant response rating, Ducksalad (Flood) [26]: 15
Plant response rating, Rice (Flood) [27]: 15
Plant response rating, Sedge, Umbrella (Flood) [28]: 25
